From ChEMBL document CHEMBL1155835 (J Med Chem, 2008)
pIC50, pKi: −log10 of the molar value.

Target: T1, Aldehyde dehydrogenase, mitochondrial (Homo sapiens, UniProt P05091)
T1 sequence (P05091 whole entry): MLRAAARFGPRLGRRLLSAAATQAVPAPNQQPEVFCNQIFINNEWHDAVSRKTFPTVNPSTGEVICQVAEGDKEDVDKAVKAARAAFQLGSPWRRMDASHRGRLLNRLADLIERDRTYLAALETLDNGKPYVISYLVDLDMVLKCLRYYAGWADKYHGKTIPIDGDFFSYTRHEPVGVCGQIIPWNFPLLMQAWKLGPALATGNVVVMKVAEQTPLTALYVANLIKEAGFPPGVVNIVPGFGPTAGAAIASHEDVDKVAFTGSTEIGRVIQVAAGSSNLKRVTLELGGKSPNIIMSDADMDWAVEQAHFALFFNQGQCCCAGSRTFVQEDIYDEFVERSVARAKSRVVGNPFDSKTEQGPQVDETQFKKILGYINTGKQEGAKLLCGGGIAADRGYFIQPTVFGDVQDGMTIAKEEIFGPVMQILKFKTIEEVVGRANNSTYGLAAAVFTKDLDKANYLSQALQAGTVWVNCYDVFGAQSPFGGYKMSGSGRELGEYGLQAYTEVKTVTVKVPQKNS
Experiment: Inhibition of human recombinant ALDH2

pKi | Compound
6.35 | COc1cc(O)c2c(=O)c(-c3ccc(O)cc3)coc2c1 [PRUNETIN]

Tested on: not listed separately
Experiment: Inhibition of hamster liver ALDH2
Design: species or system Cricetinae

Compound | pIC50
CCOc1ccc2c(=O)c(-c3ccc(O)cc3)coc2c1 | 7.10
O=C(O)CCCCCCCOc1ccc2c(=O)c(-c3ccc(O)cc3)coc2c1 | 7.40
O=C(O)CCCCOc1ccc2c(=O)c(-c3ccc(O)cc3)coc2c1 | 7.00
CCCCCCOc1ccc2c(=O)c(-c3ccc(O)cc3)coc2c1 | 5.82
O=C(O)CCCCCCCCCOc1ccc2c(=O)c(-c3ccc(O)cc3)coc2c1 | 7.30
O=c1c(-c2ccc(O)cc2)coc2cc(OCCOCCOCCO)ccc12 | 7.40

More lines, now with the values ahead:

pIC50 | Compound
5.92 | O=C(O)COc1ccc2c(=O)c(-c3ccc(O)cc3)coc2c1
< 5.05 | CCCCCCCCCCCCOc1ccc2c(=O)c(-c3ccc(O)cc3)coc2c1
6.89 | O=C(O)CCCCCCCCCCCOc1ccc2c(=O)c(-c3ccc(O)cc3)coc2c1
5.05 | O=c1c(-c2ccc(O)cc2)coc2cc(O)ccc12 [DAIDZEIN]
